# Values joined by “and” are separate entries in the source; they are usually repeats but may differ in a detail not shown here. Equal entries are not always repeated.
# What was measured:
# SARS-CoV-2 (SARS-CoV-2) [1] = conditions: vero6
# [2] = helaace2
# [3] = a549
# SARS-CoV-2 (SARS-CoV-2) [4] = conditions: helaace2
# [5] = calu3
compound,measurement,setting,value
CNC(=O)c1cc2c(NC(=O)C3CCOc4ccc(Cl)cc43)cncc2s1 (configuration not stated),IC50,SARS-CoV-2 (SARS-CoV-2) [1],568 nM
O=C1NCC(C(=O)Nc2cncc3ccccc23)c2cc(Cl)ccc21 (configuration not stated),IC90,SARS-CoV-2 (SARS-CoV-2) [1],> 5000 nM and 2280 nM
O=C(Nc1cncc2ccccc12)C1CN(S(=O)(=O)CC2CNC2)Cc2ccc(Cl)cc21 (configuration not stated),CC50,[2],> 20 µM
O=C(Nc1cncc2ccccc12)C1CCNc2cc(Cl)c(Cl)cc21 (configuration not stated),CC50,[3],< 22.9 nM
CCC(CC)COC(=O)[C@H](C)NP(=O)(OC[C@H]1O[C@@](C#N)(c2ccc3c(N)ncnn23)[C@H](O)[C@@H]1O)Oc1ccccc1 (stereo in doubt),IC50,SARS-CoV-2 (SARS-CoV-2) [4],240 nM
NC(=O)CN1Cc2ccc(Cl)cc2C(C(=O)Nc2cncc3ccccc23)C1 (configuration not stated),IC90,SARS-CoV-2 (SARS-CoV-2) [1],< 40 nM
Cc1ccncc1NC(=O)Cc1cc(Cl)cc(OC2CC(=O)N2)c1 (configuration not stated),CC50,[5],63.5 µM
